The test system of series [1] is CaSki. Description: MTT cell viability (dose-dependent cytotoxicity) assay, 72 h. It counts as cell-based, human. Particulars: for reduction in cell viability: CaSki. Here is the method: (§1) Control-treated wells contained cells incubated in media with equal volumes of DMSO (0.2%). […] The media was aspirated and cells were incubated in 100 µL complete medium with 0.5 mg/mL MTT solution for 4 h in the dark to allow metabolism of MTT by cellular mitochondrial dehydrogenases. The excess MTT was aspirated and the formazan crystals formed were dissolved by the addition of 100 µL of DMSO. The absorbance of dark blue formazan was read at 570/650 nm wavelengths using a microplate reader (Bio-Rad Benchmark Plus Microplate Spectrophotometer, Hercules, CA, USA). Triplicate absorbance values were averaged and the effect of the compounds on growth inhibition was assessed as percentage cell viability as follows: […] The results were analysed using GraphPad Prism version 6.00 for Windows (GraphPad Software, La Jolla, CA, USA). […] Overall EC50 was determined by taking the average EC50 from three independent experiments.

In series [2] the test system is HeLa. The series is described as above. Type of series: cell-based, human. Here is the method:
as §1

A word on the EC50: it is the concentration at which the effect is half-maximal. As usually defined, the viability is the share of living cells, or the viability signal relative to a control. A lower viability goes with a greater loss of cells. Consider `O=C(C=Cc1ccccc1O)C=Cc1ccccc1O` [MS17, 1,5-bis(2-hydroxyphenyl)-1,4-pentadiene-3-one], for which the “reduction in cell viability” value in series [1] (1.6 μM, 72 h) came out at 30%; in series [1] (3.1 to 100 μM, 72 h), 90%. The “Selective Index CaSki” value in series [1] (EC50 (MRC9)/EC50 (CaSki) × 100) is 447. The 50% effective concentration (EC50) in series [1] (Homo sapiens, Ca-Ski, MTT, 72 h, read-out: EC50 (Mean ± S.E.M.) CaSki) was 1030 ± 500 nM; in series [2] (Homo sapiens, HeLa, MTT, 72 h, read-out: EC50 (Mean ± S.E.M.) HeLa), 2600 ± 900 nM. Besides, in series [2] (EC50 (MRC9)/EC50 (HeLa) × 100), the “Selective Index HeLa” value came out at 177. Besides, the cell viability result in series [2] (HeLa, 12.5 to 100 μM, 72 h) was “less than 10%”. The compound further yielded a viability at 3.1 µM in series [2] (Homo sapiens, HeLa, 3.1 μM, 72 h) of 36%. Moreover, the viability at 6.3 µM in series [2] (Homo sapiens, HeLa, 6.3 μM, 72 h) came out at 14%.

These data come from PMC6331910, “The Curcumin Analogue 1,5-Bis(2-hydroxyphenyl)-1,4-pentadiene-3-one Induces Apoptosis and Downregulates E6 and E7 Oncogene Expression in HPV16 and HPV18-Infected Cervical Cancer Cells” (Molecules, 2015).
